Data taken from patent US20130210054A1, “Amino Acid Copolymer Assay” (Momenta Pharmaceuticals, Inc., priority 2012, published 2013).

What was measured:
Assay type in all cases: cell-based, Balb/c mice
[1] = tested on: GA-specific polarized Th2 cells; test: Th2 assay: cytokine secretion by GA-specific polarized Th2 cells with APCs and antigen, 9-plex MSD multiplex
Description: Populations of Th2 cells and APC cells were reanimated in culture media (RPMI/5% FBS/20 ng/mL IL-2), added dropwise. Cells were pelleted at 400-800G before being resuspended in fresh culture media for use in the assay. For the assay, 150,000 APC cells were combined with a concentration of GA using serial dilution of the GA. The resulting concentration curve provided a range from 0-50 μg/mL GA. APC cells were incubated with the GA for about 10 minutes before the Th2 cells were added. The final volume for the assay was 0.2 mL. The set up for the Th2 assay is illustrated in FIG. 7.
More specifically, GA-specific polarized Th2 cells prepared according to Example 1 were cultured in vitro with varying concentrations of GA (reference standard commercial preparation, Copaxone® or glatiramoid (Sigma-Aldrich (COP-1)) in the presence of syngeneic, mitomycin-C-treated, naïve splenic APCs. Cells were cultured in 96-well plates in a final volume of 200 μl per well, with 50 μl of […] splenic APCs (150×10^3/50 μl) freshly isolated from naïve Balb/c mice, 50 μl of GA-specific polarized Th2 cells (50×10^3/50 μl) and 100 μl of culture media (complete RPMI-10 supplemented with 10% FBS) containing RLD or COP-1 at increasing concentrations of GA from 0 to 50 μg/ml. Conditioned culture media was collected 24 hours post stimulation for analysis by multiplex assay and ELISA. Th1 ([…], IL-2, IL-12p70, TNF-α, KC and IFN-γ) and Th2 (IL-4, IL-5, and IL-10) cytokine levels (pg/ml) were measured using the 9-plex mouse Th1/Th2 cytokine kit from Meso Scale Discovery (MSD) (Gaithersburg, Md.).

[2] = tested on: GA-specific polarized Th2 cells; test: GA-Th2 assay: IL-4 in culture media by ELISA; conditions: 0 to 50 μg/ml antigen, 24 hours, sandwich ELISA
Description: Populations of Th2 cells and APC cells were reanimated in culture media (RPMI/5% FBS/20 ng/mL IL-2), added dropwise. Cells were pelleted at 400-800G before being resuspended in fresh culture media for use in the assay. […] The final volume for the assay was 0.2 mL. The set up for the Th2 assay is illustrated in FIG. 7.
Conditioned culture media was collected 24 hours post stimulation for analysis by multiplex assay and ELISA.
The response curve was fit to the four parameter logistic fit equation using nonlinear regression and the EC50 (μg/ml) was calculated. One-way ANOVA followed by Tukey's multiple comparison test (significance level, p<0.05) was used for statistical testing of the dataset for each plate.
IL-4 levels were determined by sandwich ELISA.

CD4+ T cells = test: Cytokine levels in culture media of CD4+ T cells from GA-immunized mice after restimulation with antigen and APCs (multiplex); conditions: for levels of Th2 cytokines induced: after a second round of stimulation, 20 μg antigen
Description: Balb/c mice (Jackson Labs) were immunized with 250 μg/mL of GA (reference lot drug (RLD) or ovalbumin (OVA), each in saline, emulsified in complete Freund's adjuvant (CFA) on day 1. On day 11, the draining lymph nodes were harvested, single cell suspensions were made, and CD4+ T cells were enriched by negative selection immunomagnetic bead purification.
For ex vivo challenge, CD4+ T cells (1×10^6/ml) were re-stimulated with 20 μg/mL of the same antigen used to immunize the mice (RLD, GA, or OVA) in the presence of freshly isolated or frozen naïve mitomycin C-treated splenic APCs (1×10^7/ml) for 3-4 days, at which time, the culture media was replaced with fresh culture media supplemented with 20 ng/ml of IL-2. Cells were split and reseeded at 800,000 cells/mL in media containing 4 parts fresh media (RPMI/5% FBS/20 ng/mL IL-2) and 1 part recycled media from the previous culture. This cycle of changing the media and splitting the cells was repeated for 6 cycles. Cells were frozen and stored as a cell bank.
After cell propagation, the CD4+ T cells were restimulated once again with freshly isolated naïve mitomycin C-treated splenic APCs (1×10^7/ml) for 4 days and 20 μg of the respective antigen. Culture supernatants were collected 72 hours after the start of each restimulation for analysis.
Th1 (IL-2 and IL-12p40), Th2 (IL-4, IL-5 IL-6, IL-10, and IL-13) and Th17 (IL-17) cytokine levels (ng/ml) were measured using multiplex technology (Endogen Searchlight, Rockford, Ill.). A one-way ANOVA followed by Newman-Keuls multiple comparison test (significance level, p<0.05) for each individual measured cytokine was used for statistical analysis.

## Poly(Ala, Glu, Lys, Tyr) 6:2:5:1 hydrobromide [COP-1]
[1]; 0 to 50 μg/ml antigen, 24 hours
  Th2 cytokines (IL-4, IL-5, IL-10) secreted: dose-dependent increase
[1]; 0 to 50 μg/ml, 24 hours
  levels of IL-2 and TNF-α: quantifiable and exhibited dose dependency
  response versus RLD in secretion of the Th2 cytokines: readily distinguishable from RLD
[1]; 0 to 50 μg/ml, 24 hours, not dose dependent
  levels of secreted Th1 cytokines (IL-1β, KC, IFN-γ): very low (below limits of quantitation)
[1]; 0 to 50 μg/ml, 24 hours, quantitated
  IL-12 secretion: not dose dependent
[1]; 24 hours
  doses at which discriminated from RLD in levels of IL-2 and TNF-α secreted: > 30 µg/mL
[1]; restimulated in the presence of APCs
  levels of Th2 cytokines (IL-4, IL-5, IL-10, IL-13), IL-2, IL-6 and TNF-α compared to restimulation with GA: significantly decreased levels

## MBP (87-89): myelin basic protein peptide, Peptides International Catalog No. PMB-3973-PI (NRPHLIRLFSRDA; UniProt P04370 87-99, looked up, fragment)
[2]
  IL-4 in the culture media (cross-reactivity): no IL-4 was detected

## PLP (139-151): encephalitogenic neuroantigen peptide, Peptides International (CHCLGKWLGHPDK; UniProt P60202 139-151, looked up, fragment)
[2]
  IL-4 in the culture media (cross-reactivity): no IL-4 was detected

## MOG (35-55): encephalitogenic neuroantigen peptide, Peptides International (MEVGWYRSPFSRVVHLYRNGK; UniProt Q61885 63-83, looked up, fragment)
[2]
  IL-4 in the culture media (cross-reactivity): no IL-4 was detected

## L-glutamic acid polymer with L-alanine, L-lysine and L-tyrosine, acetate (salt) [GA]
CD4+ T cells; supernatant 72 hours
  levels of Th2 cytokines induced: high levels
CD4+ T cells; after the first round of stimulation, 20 μg/mL antigen, supernatant 72 hours
  levels of Th2 cytokines (IL-5, IL-6, IL-10, IL-13) induced: low but detectable levels
CD4+ T cells; with the second round of stimulation
  Th17 cytokine IL-17 and Th1 cytokine IL-12p40: selectively down-regulated

B1: ovalbumin: ovalbumin control antigen (protein, UniProt P01012 2-386, looked up)
Ovalbumin: GSIGAASMEFCFDVFKELKVHHANENIFYCPIAIMSALAMVYLGAKDSTRTQINKVVRFDKLPGFGDSIEAQCGTSVNVHSSLRDILNQITKPNDVYSFSLASRLYAEERYPILPEYLQCVKELYRGGLEPINFQTAADQARELINSWVESQTNGIIRNVLQPSSVDSQTAMVLVNAIVFKGLWEKAFKDEDTQAMPFRVTEQESKPVQMMYQIGLFRVASMASEKMKILELPFASGTMSMLVLLPDEVSGLEQLESIINFEKLTEWTSSNVMEERKIKVYLPRMKMEEKYNLTSVLMAMGITDVFSSSANLSGISSAESLKISQAVHAAHAEINEAGREVVGSAEAGVDAASVSEEFRADHPFLFCIKHIATNAVLFFGRCVSP
CD4+ T cells; supernatant 72 hours
  levels of Th2 cytokines induced: did not show a corresponding increase

B2: murine MBP: murine myelin basic protein, EMD Biosciences Catalog No. 124027 (protein, UniProt P04370 1-250, looked up)
Myelin basic protein: MGNHSGKRELSAEKASKDGEIHRGEAGKKRSVGKLSQTASEDSDVFGEADAIQNNGTSAEDTAVTDSKHTADPKNNWQGAHPADPGNRPHLIRLFSRDAPGREDNTFKDRPSESDELQTIQEDPTAASGGLDVMASQKRPSQRSKYLATASTMDHARHGFLPRHRDTGILDSIGRFFSGDRGAPKRGSGKDSHTRTTHYGSLPQKSQHGRTQDENPVVHFFKNIVTPRTPPPSQGKGGRDSRSGSPMARR
[2]
  IL-4 in the culture media (cross-reactivity): no IL-4 was detected
